Experimental data from ChEMBL document CHEMBL1125711, “Flavins as potential antimalarials. 2. 3-Methyl-10-(substituted-phenyl) flavins” (J Med Chem, 1991).

Each molecule was assayed on Mus musculus (assay: Increase in mean survival days was determined in mice after ip administration of 10 mg/kg). Conditions: route intraperitoneal.
Assay type: functional

Structure (SMILES)	Mean survival days [days]
Cc1cc(-n2c3nc(=O)n(C)c(=O)c-3nc3ccccc32)ccc1Cl	0
COc1ccc(-n2c3nc(=O)n(C)c(=O)c-3nc3ccccc32)cc1	0
Cc1cc(C)cc(-n2c3nc(=O)n(C)c(=O)c-3nc3ccccc32)c1	0
Cn1c(=O)nc2n(-c3cccc(Br)c3)c3ccccc3nc-2c1=O	0

These molecules were tested on Mus musculus (assay: Increase in mean survival days was determined in mice after ip administration of 15 mg/kg). Conditions: route intraperitoneal.
Assay type: functional

Structure (SMILES)	Mean survival days [days]
Cc1cc(C)cc(-n2c3nc(=O)n(C)c(=O)c-3nc3ccccc32)c1	1
Cn1c(=O)nc2n(-c3cccc(Br)c3)c3ccccc3nc-2c1=O	0

Each molecule was assayed on Mus musculus (assay: Increase in mean survival days was determined in mice after ip administration of 30 mg/kg). Conditions: route intraperitoneal.
Assay type: functional

Structure (SMILES)	Mean survival days [days]
Cc1cc(-n2c3nc(=O)n(C)c(=O)c-3nc3ccccc32)ccc1Cl	0
COc1ccc(-n2c3nc(=O)n(C)c(=O)c-3nc3ccccc32)cc1	0.4
Cn1c(=O)nc2n(-c3cccc(Br)c3)c3ccccc3nc-2c1=O	0

What follows are molecules tested on Mus musculus (assay: Increase in mean survival days was determined in mice after ip administration of 40 mg/kg). Conditions: route intraperitoneal.
Assay type: functional

Structure (SMILES)	Mean survival days [days]
Cc1cc(-n2c3nc(=O)n(C)c(=O)c-3nc3ccccc32)ccc1Cl	0.3
COc1ccc(-n2c3nc(=O)n(C)c(=O)c-3nc3ccccc32)cc1	1
Cn1c(=O)nc2n(-c3cccc(Br)c3)c3ccccc3nc-2c1=O	0

These molecules were tested on Mus musculus (assay: Increase in mean survival days was determined in mice after ip administration of 50 mg/kg). Conditions: route intraperitoneal.
Assay type: functional

Structure (SMILES)	Mean survival days [days]
Cc1cc(-n2c3nc(=O)n(C)c(=O)c-3nc3ccccc32)ccc1Cl	0.3
COc1ccc(-n2c3nc(=O)n(C)c(=O)c-3nc3ccccc32)cc1	2
Cc1cc(C)cc(-n2c3nc(=O)n(C)c(=O)c-3nc3ccccc32)c1	5.5
Cn1c(=O)nc2n(-c3cccc(Br)c3)c3ccccc3nc-2c1=O	1

The molecules below were run on Mus musculus (assay: Increase in mean survival days was determined in mice after ip administration of 60 mg/kg). Conditions: route intraperitoneal.
Assay type: functional

Structure (SMILES)	Mean survival days [days]
Cn1c(=O)nc2n(-c3cccc([N+](=O)[O-])c3)c3ccccc3nc-2c1=O	1
COc1ccc(-n2c3nc(=O)n(C)c(=O)c-3nc3ccccc32)cc1	1
Cn1c(=O)nc2n(-c3cccc(Br)c3)c3ccccc3nc-2c1=O	-1

What follows are molecules tested on Mus musculus (assay: Increase in mean survival days was determined in mice after ip administration of 60 mg/kg; toxic). Conditions: route intraperitoneal.
Assay type: functional

Structure (SMILES)	Mean survival days [days]
Cc1cc(C)cc(-n2c3nc(=O)n(C)c(=O)c-3nc3ccccc32)c1	0.4

What follows are molecules tested on Plasmodium vinckei vinckei (assay: Increase in mean survival days of Plasmodium inoculated mice (Mus musculus) after 70 mg/Kg intraperitoneal dose). Conditions: not given.
Assay type: functional

Structure (SMILES)	Mean survival days [days]
Cn1c(=O)nc2n(-c3cccc([N+](=O)[O-])c3)c3ccccc3nc-2c1=O	-0.5
Cc1cc(-n2c3nc(=O)n(C)c(=O)c-3nc3ccccc32)ccc1Cl	2

Each molecule was assayed on Mus musculus (assay: Increase in mean survival days was determined in mice after ip administration of 70 mg/kg; toxic). Conditions: in vivo.
Assay type: ADME, organism-based
Parameters: dose 70 mg/kg, route intraperitoneal

Structure (SMILES)	Mean survival days [days]
COc1ccc(-n2c3nc(=O)n(C)c(=O)c-3nc3ccccc32)cc1	-0.5

Organism: Mus musculus
Experiment: Effective dose required to obtain a parasitaemia of 40% 48 hours after treatment in mice
Assay type: functional
Conditions: not given

Structure (SMILES)	ED40 [µmol/kg]
Cc1cc(-n2c3nc(=O)n(C)c(=O)c-3nc3ccccc32)ccc1Cl	182
COc1ccc(-n2c3nc(=O)n(C)c(=O)c-3nc3ccccc32)cc1	138
Cc1cc(C)cc(-n2c3nc(=O)n(C)c(=O)c-3nc3ccccc32)c1	105

These molecules were tested on Mus musculus (assay: Antimalarial activity was evaluated against Plasmodium vinckei V52 after intraperitoneal administration at dose 30 mg/kg). Conditions: not given.
Assay type: functional

Structure (SMILES)	Cured [%]
Cn1c(=O)nc2n(-c3cccc([N+](=O)[O-])c3)c3ccccc3nc-2c1=O	0
Cn1c(=O)nc2n(-c3cccc(Br)c3)c3ccccc3nc-2c1=O	0

What follows are molecules tested on Mus musculus (assay: Antimalarial activity was evaluated against Plasmodium vinckei vinckeii V52 after intraperitoneal administration at dose 40 mg/kg). Conditions: not given.
Assay type: functional

Structure (SMILES)	Cured [%]
Cn1c(=O)nc2n(-c3cccc(Br)c3)c3ccccc3nc-2c1=O	0

Each molecule was assayed on Mus musculus (assay: Antimalarial activity was evaluated against Plasmodium vinckei vinckeii V52 after intraperitoneal administration at dose 50 mg/kg). Conditions: not given.
Assay type: functional

Structure (SMILES)	Cured [%]
Cn1c(=O)nc2n(-c3cccc(Br)c3)c3ccccc3nc-2c1=O	80

The molecules below were run on Mus musculus (assay: Antimalarial activity was evaluated against Plasmodium vinckei vinckeii V52 after intraperitoneal administration at dose 60 mg/kg). Conditions: not given.
Assay type: functional

Structure (SMILES)	Cured [%]
Cn1c(=O)nc2n(-c3cccc([N+](=O)[O-])c3)c3ccccc3nc-2c1=O	0
Cn1c(=O)nc2n(-c3cccc(Br)c3)c3ccccc3nc-2c1=O	80

The molecules below were run on Plasmodium vinckei vinckei (assay: Antimalarial activity against Plasmodium vinckei V52 on 10 mg/kg intraperitoneal dose). Conditions: not given.
Assay type: functional

Structure (SMILES)	Cured [%]
Cc1cc(-n2c3nc(=O)n(C)c(=O)c-3nc3ccccc32)ccc1Cl	0
COc1ccc(-n2c3nc(=O)n(C)c(=O)c-3nc3ccccc32)cc1	0
Cc1cc(C)cc(-n2c3nc(=O)n(C)c(=O)c-3nc3ccccc32)c1	0

Each molecule was assayed on Mus musculus (assay: Antimalarial activity was evaluated against Plasmodium vinckei V52 after intraperitoneal administration at dose 15 mg/kg). Conditions: not given.
Assay type: functional

Structure (SMILES)	Cured [%]
Cc1cc(C)cc(-n2c3nc(=O)n(C)c(=O)c-3nc3ccccc32)c1	60

The molecules below were run on Mus musculus (assay: Antimalarial activity was evaluated against Plasmodium vinckei V52 after intraperitoneal administration at dose 20 mg/kg). Conditions: not given.
Assay type: functional

Structure (SMILES)	Cured [%]
Cc1cc(C)cc(-n2c3nc(=O)n(C)c(=O)c-3nc3ccccc32)c1	100

These molecules were tested on Mus musculus (assay: Antimalarial activity was evaluated against Plasmodium vinckei vinckei V52 after intraperitoneal administration at dose 25 mg/kg). Conditions: not given.
Assay type: functional

Structure (SMILES)	Cured [%]
Cc1cc(C)cc(-n2c3nc(=O)n(C)c(=O)c-3nc3ccccc32)c1	100

What follows are molecules tested on Mus musculus (assay: Antimalarial activity was evaluated against Plasmodium vinckei vinckei V52 after intraperitoneal administration at dose 30 mg/kg). Conditions: not given.
Assay type: functional

Structure (SMILES)	Cured [%]
Cc1cc(C)cc(-n2c3nc(=O)n(C)c(=O)c-3nc3ccccc32)c1	100

What follows are molecules tested on Mus musculus (assay: Antimalarial activity was evaluated against Plasmodium vinckei vinckei V52 after intraperitoneal administration at dose 40 mg/kg). Conditions: not given.
Assay type: functional

Structure (SMILES)	Cured [%]
Cc1cc(C)cc(-n2c3nc(=O)n(C)c(=O)c-3nc3ccccc32)c1	100

Each molecule was assayed on Mus musculus (assay: Antimalarial activity was evaluated against Plasmodium vinckei V52 after intraperitoneal administration at dose 40 mg/kg). Conditions: not given.
Assay type: functional

Structure (SMILES)	Cured [%]
Cc1cc(-n2c3nc(=O)n(C)c(=O)c-3nc3ccccc32)ccc1Cl	0
COc1ccc(-n2c3nc(=O)n(C)c(=O)c-3nc3ccccc32)cc1	20

These molecules were tested on Mus musculus (assay: Antimalarial activity was evaluated against Plasmodium vinckei vinckei V52 after intraperitoneal administration at dose 50 mg/kg). Conditions: not given.
Assay type: functional

Structure (SMILES)	Cured [%]
Cc1cc(C)cc(-n2c3nc(=O)n(C)c(=O)c-3nc3ccccc32)c1	60

Each molecule was assayed on Mus musculus (assay: Antimalarial activity was evaluated against Plasmodium vinckei V52 after intraperitoneal administration at dose 50 mg/kg). Conditions: not given.
Assay type: functional

Structure (SMILES)	Cured [%]
Cc1cc(-n2c3nc(=O)n(C)c(=O)c-3nc3ccccc32)ccc1Cl	25
COc1ccc(-n2c3nc(=O)n(C)c(=O)c-3nc3ccccc32)cc1	80

Each molecule was assayed on Mus musculus (assay: Antimalarial activity was evaluated against Plasmodium vinckei vinckei V52 after intraperitoneal administration at dose 60 mg/kg). Conditions: not given.
Assay type: functional

Structure (SMILES)	Cured [%]
Cc1cc(C)cc(-n2c3nc(=O)n(C)c(=O)c-3nc3ccccc32)c1	0

What follows are molecules tested on Mus musculus (assay: Antimalarial activity was evaluated against Plasmodium vinckei V52 after intraperitoneal administration at dose 60 mg/kg). Conditions: not given.
Assay type: functional

Structure (SMILES)	Cured [%]
Cc1cc(-n2c3nc(=O)n(C)c(=O)c-3nc3ccccc32)ccc1Cl	100
COc1ccc(-n2c3nc(=O)n(C)c(=O)c-3nc3ccccc32)cc1	80

What follows are molecules tested on Mus musculus (assay: Antimalarial activity was evaluated against Plasmodium vinckei V52 after intraperitoneal administration at dose 70 mg/kg). Conditions: not given.
Assay type: functional

Structure (SMILES)	Cured [%]
Cn1c(=O)nc2n(-c3cccc([N+](=O)[O-])c3)c3ccccc3nc-2c1=O	0
Cn1c(=O)nc2n(-c3cccc(Br)c3)c3ccccc3nc-2c1=O	100

The molecules below were run on Plasmodium vinckei vinckei (assay: Antimalarial activity against Plasmodium vinckei V52 on 70 mg/kg intraperitoneal dose). Conditions: not given.
Assay type: functional

Structure (SMILES)	Cured [%]
Cc1cc(-n2c3nc(=O)n(C)c(=O)c-3nc3ccccc32)ccc1Cl	80
COc1ccc(-n2c3nc(=O)n(C)c(=O)c-3nc3ccccc32)cc1	60

Each molecule was assayed on Mus musculus (assay: Antimalarial activity was evaluated against Plasmodium vinckei V52 after intraperitoneal administration at dose 10 mg/kg). Conditions: not given.
Assay type: functional

Structure (SMILES)	Cured [%]
Cn1c(=O)nc2n(-c3cccc([N+](=O)[O-])c3)c3ccccc3nc-2c1=O	0
Cn1c(=O)nc2n(-c3cccc(Br)c3)c3ccccc3nc-2c1=O	0

What follows are molecules tested on Mus musculus (assay: Antimalarial activity was evaluated against Plasmodium vinckei vinckeii V52 after intraperitoneal administration at dose 15 mg/kg). Conditions: not given.
Assay type: functional

Structure (SMILES)	Cured [%]
Cn1c(=O)nc2n(-c3cccc(Br)c3)c3ccccc3nc-2c1=O	0

These molecules were tested on Plasmodium vinckei vinckei (assay: Antimalarial activity against Plasmodium vinckei V52 after 20 mg/kg intraperitoneal dose). Conditions: not given.
Assay type: functional

Structure (SMILES)	Cured [%]
Cc1cc(-n2c3nc(=O)n(C)c(=O)c-3nc3ccccc32)ccc1Cl	0
COc1ccc(-n2c3nc(=O)n(C)c(=O)c-3nc3ccccc32)cc1	0
